Data from patent US5712148A (Synaptic Pharmaceutical Corporation, priority 1995, dated 1998).
Several values for one entry are separate records, joined by “and”; a condition that tells them apart may be missing. Equal entries are not always repeated. Where two headings read alike, the source gives them in different places.

Experiments:
[1] = target: T1, hS1a (human betaine/GABA transporter, hBGT) (Homo sapiens, UniProt P48065); assay: Inhibition of specific [^3 H]GABA uptake in COS7 (transient) or LMtk- (stable; hS1a-3) cells expressing hS1a; format: cell-based; parameters: Translation of a long open reading frame predicts a protein of 614 amino acids with 12 putative transmembrane domains; expressed in transfected cells; conditions: for inhibitory potency at hS1a in words: inhibition of [^3 H]GABA uptake; for inhibition at 100 µM / inhibition at 500 µM: read-out: % Inhibition of specific [^3 H]GABA uptake; for IC50: estimated from data for one or two concentrations of inhibitor (Table 1), not corrected for [^3 H]GABA concentration; for potency at hS1a vs dog and mouse transporters, in words: comparison across clones
T1 sequence (P48065 1-614 C10Y): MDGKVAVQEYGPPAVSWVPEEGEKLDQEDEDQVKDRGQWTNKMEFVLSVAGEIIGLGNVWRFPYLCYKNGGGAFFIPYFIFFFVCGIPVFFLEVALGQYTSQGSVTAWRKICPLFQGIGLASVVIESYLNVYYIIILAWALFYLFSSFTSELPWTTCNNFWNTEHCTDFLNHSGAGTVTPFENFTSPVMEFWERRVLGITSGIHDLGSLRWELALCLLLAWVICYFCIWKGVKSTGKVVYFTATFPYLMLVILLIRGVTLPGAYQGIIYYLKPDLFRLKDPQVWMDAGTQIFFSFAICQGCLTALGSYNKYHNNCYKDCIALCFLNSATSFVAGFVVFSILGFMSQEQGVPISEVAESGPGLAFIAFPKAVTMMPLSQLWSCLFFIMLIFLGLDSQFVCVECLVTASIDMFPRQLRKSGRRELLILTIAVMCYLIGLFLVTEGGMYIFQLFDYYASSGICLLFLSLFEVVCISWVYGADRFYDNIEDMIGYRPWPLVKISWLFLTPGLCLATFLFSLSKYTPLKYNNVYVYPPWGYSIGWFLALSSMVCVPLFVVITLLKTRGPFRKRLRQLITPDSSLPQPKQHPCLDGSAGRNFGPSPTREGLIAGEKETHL
Experimental: (§1) Transport was also measured in suspension. The details of this method will described in detail in a subsequent publication (Borden et al., manuscript in preparation). Briefly, transient (COS-7) or stable (LM) transfectants were removed from culture plates with trypsin/EDTA, and transferred to suspension culture. The cells were grown in a temperature-controlled shaking incubator, using a medium containing methylcellulose. To measure transport the cells were washed by centrifugation, and resuspended in HBS. The assay was performed in 96-well microtiter plates (total volume=0.25 ml/well). […] Cell-associated radioactivity retained on the filters was determined by scintillation counting.

[2] = test system: dog betaine/GABA transporter; conditions: Yamauchi et al., 1992, cited from earlier work
[3] = target: T2, GAT-2 (Rattus norvegicus, UniProt P31646); assay: Affinity of GABA at GAT-2, suspension vs attached cells; format: cell-based; conditions: Borden, unpublished
T2 sequence (P31646 1-602): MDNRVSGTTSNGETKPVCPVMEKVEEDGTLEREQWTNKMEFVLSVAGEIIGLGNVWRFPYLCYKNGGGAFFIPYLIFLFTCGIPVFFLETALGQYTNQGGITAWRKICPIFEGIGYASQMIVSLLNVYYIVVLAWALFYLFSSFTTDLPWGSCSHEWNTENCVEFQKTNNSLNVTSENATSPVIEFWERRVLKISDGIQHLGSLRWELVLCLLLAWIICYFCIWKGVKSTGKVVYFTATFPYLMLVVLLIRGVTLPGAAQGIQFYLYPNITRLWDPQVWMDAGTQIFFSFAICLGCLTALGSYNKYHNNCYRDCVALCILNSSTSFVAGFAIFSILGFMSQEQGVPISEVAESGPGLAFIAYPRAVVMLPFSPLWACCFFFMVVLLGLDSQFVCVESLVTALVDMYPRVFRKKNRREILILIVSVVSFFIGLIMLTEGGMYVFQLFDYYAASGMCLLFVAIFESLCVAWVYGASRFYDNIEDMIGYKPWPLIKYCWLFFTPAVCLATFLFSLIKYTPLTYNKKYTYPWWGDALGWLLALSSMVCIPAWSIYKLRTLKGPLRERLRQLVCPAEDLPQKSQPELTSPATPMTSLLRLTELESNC
From the text: […]. […] Another important factor is our use of suspension cultures. […]. Liu et al., 1992a).

[4] = target: T1, hS1a (human betaine/GABA transporter, hBGT); conditions: in words
Experimental: as §1
(§2) For example, the dog and mouse clones were expressed in oocytes, whereas we employed COS-7 or LMtk^- fibroblasts for the human clone. Additionally, we measured transport for 10 minutes at 37° C., while the dog clone was assayed for 30 minutes at 25° C. […] Another important factor is our use of suspension cultures.

[5] = target: T3, GAT-3 (Rattus norvegicus, UniProt P31647); assay: Affinity of GABA at GAT-3, suspension vs attached cells; format: cell-based; conditions: Borden, unpublished
T3 sequence (P31647 1-627): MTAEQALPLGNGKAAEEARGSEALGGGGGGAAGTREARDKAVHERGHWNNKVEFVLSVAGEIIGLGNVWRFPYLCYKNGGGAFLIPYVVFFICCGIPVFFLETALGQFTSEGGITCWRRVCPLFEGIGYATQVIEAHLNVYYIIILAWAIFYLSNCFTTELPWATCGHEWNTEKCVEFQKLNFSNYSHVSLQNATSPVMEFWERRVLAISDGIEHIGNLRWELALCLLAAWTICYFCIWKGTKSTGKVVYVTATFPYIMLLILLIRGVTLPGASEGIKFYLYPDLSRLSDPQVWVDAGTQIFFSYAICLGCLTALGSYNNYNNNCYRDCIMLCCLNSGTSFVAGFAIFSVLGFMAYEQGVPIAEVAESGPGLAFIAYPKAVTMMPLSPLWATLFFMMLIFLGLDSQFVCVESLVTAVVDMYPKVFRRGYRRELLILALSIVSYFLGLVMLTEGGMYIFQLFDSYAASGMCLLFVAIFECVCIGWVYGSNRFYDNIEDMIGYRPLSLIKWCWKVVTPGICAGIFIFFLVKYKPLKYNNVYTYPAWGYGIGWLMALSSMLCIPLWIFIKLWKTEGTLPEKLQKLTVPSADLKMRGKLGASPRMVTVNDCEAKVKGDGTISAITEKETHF
Experimental: as §2

[6] = test system: mouse betaine/GABA transporter; conditions: data from Lopez-Corcuera et al., 1992; estimated from one or two concentrations of inhibitor; cited from earlier work
[7] = test system: dog betaine/GABA transporter; conditions: data from Yamauchi et al., 1992; estimated from one or two concentrations of inhibitor; cited from earlier work
[8] = test system: mouse betaine/GABA transporter; assay: Inhibition at mouse betaine/GABA transporter clone (literature comparison); format: cell-based; conditions: comparison across clones
Experimental: as §2

Molecule	inhibitory potency at hS1a in words [1]	inhibition at 100 µM [1]	IC50 [6]	IC50 ([1]; read-out: IC50 (human))	other results
N[C@@H]1CCC[C@H](C(=O)O)C1 (relative stereo) [ACHC, cis-3-aminocyclohexanecarboxylic acid]	weak inhibitors	0%	–	–	–
Cc1ccsc1C(=CCCN1CCC[C@@H](C(=O)O)C1)c1sccc1C [(R)-Tiagabine]	weak inhibitors	12 ± 7%	–	–	–
NCCCC(=O)O [GABA, γ-aminobutyric acid]	–	–	–	–	higher affinity of the transporter for GABA than for betaine [2]: 4 fold; affinity for GABA vs betaine, in words ([2]; betaine transporter cloned from MDCK dog kidney cells): higher affinity for GABA than for betaine; increase in affinity of GABA in suspension vs attached cells (GAT-2) [3]: about 10 fold; affinity of hBGT for GABA vs other GABA transporters [4]: lower than that of other GABA transporters; increase in affinity of GABA in suspension vs attached cells (GAT-3) [5]: about 10 fold
NCC[C@H](N)C(=O)O [L-DABA, L-(2,4)diaminobutyric acid]	–	24 ± 24%	–	–	–
C[N+](C)(C)CC(=O)O [betaine]	–	–	206 µM	258 µM and 150 to 250 µM	inhibition at 500 µM [1]: 66 ± 15%
O=C(O)C1=CCCNC1 [guvacine]	weak inhibitors	5 ± 5%	2800 µM	1900 µM	–
O=C(O)C1CCCNC1 (centres unmarked) [nipecotic acid]	–	34 ± 19%	–	–	IC50 [7]: 4700 µM; potency at hS1a vs dog and mouse transporters, in words [1]: more potent at hS1a than at either of the other two transporters
O=C(CCc1ccc(O)cc1)c1c(O)cc(O)cc1O [phloretin]	–	–	37 µM	258 µM	IC50 [7]: 200 µM; potency at mouse BGT vs dog or human clones, in words [8]: more potent at the mouse BGT than at the dog or human clones; inhibition at 500 µM [1]: 66%
C=C[C@H]1C[N@@]2CC[C@H]1C[C@@H]2[C@@H](O)c1ccnc2ccc(OC)cc12 [quinidine]	–	92%	49 µM	–	IC50 ([1]; IC50 (human)): 488 µM and ~50 µM; inhibition at 500 µM [1]: 85%
NCCC(=O)O [β-alanine]	–	42 ± 22%	1900 µM	138 µM and 150 to 250 µM	IC50 [7]: 2400 µM; potency at hS1a vs dog and mouse transporters, in words [1]: more potent at hS1a than at either of the other two transporters
hydroxynipecotic acid [OH-nipecotic acid]	weak inhibitors	–	–	–	IC50 ([1]; 10 min, listed as Hydroxynipecotic acid, 10 min, read-out: IC50 (human)): > 1000 µM; IC50 ([1]; 10 min, read-out: IC50 (human)): 1150 µM; % Inhibition of specific [^3 H]GABA uptake ([1]; inhibitor 100 μM, 50 nM [^3 H]GABA, 10 minutes, 37° C., mean ± SEM): 8 ± 8%
